Measurements as given in ChEMBL document CHEMBL1129200, “Synthesis and cytotoxic activity of phenyl-hexahydropyrrolo[3,4-c]carbazoles” (Bioorg Med Chem Lett, 1996).

Assays:
HT-29 = assay: Cytotoxic activity against HT-29 cell lines.; format: functional, cell-based; conditions: Homo sapiens
SK-MEL-28 = assay: Cytotoxic activity against MEL-28 cell lines.; format: functional, cell-based; conditions: Homo sapiens
A549 = assay: Cytotoxic activity against A-549 cell lines.; format: functional, cell-based; conditions: Homo sapiens
P388 = assay: Cytotoxic activity against P-388 cell lines.; format: functional, cell-based; conditions: Mus musculus
BT-549 = assay: Cytotoxic activity against […] breast cancer cell lines.; format: functional; conditions: Homo sapiens
SK-MEL-2 = assay: Cytotoxic activity against SK-MEL-2 melanoma cell lines.; format: functional; conditions: Homo sapiens
HL-60 = assay: Cytotoxic activity against HL-60(TB) leukemia cell lines.; format: functional; conditions: Homo sapiens
RXF 393 = assay: Cytotoxic activity against […] renal cancer cell lines.; format: functional; conditions: Homo sapiens
MDA-MB-435 = assay: Cytotoxic activity against MDA-MB-435 breast cancer cell lines.; format: functional; conditions: Homo sapiens
UACC-62 = assay: Cytotoxic activity against UACC-62 melanoma cell lines.; format: functional; conditions: Homo sapiens
U-251 = assay: Cytotoxic activity against U251 CNS tumor cell line cell lines.; format: functional; conditions: Homo sapiens
A498 = assay: Cytotoxic activity against A 498 renal cancer cell lines.; format: functional; conditions: Homo sapiens
HOP-62 = assay: Cytotoxic activity against HOP-62 non small cell lung cancer cell lines.; format: functional; conditions: Homo sapiens
T47D = assay: Cytotoxic activity against T-47D breast cancer cell lines.; format: functional; conditions: Homo sapiens
SNB-75 = assay: Cytotoxic activity against SNB-75 CNS tumor cell line cell lines.; format: functional; conditions: Homo sapiens
K562 = assay: Cytotoxic activity against K-562 leukemia cell lines.; format: functional; conditions: Homo sapiens
HOP-92 = assay: Cytotoxic activity against HOP-92 non small cell lung cancer cell lines.; format: functional; conditions: Homo sapiens
SNB-19 = assay: Cytotoxic activity against SNB-19 CNS tumor cell lines.; format: functional; conditions: Homo sapiens
MDA-N = assay: Cytotoxic activity against MDA-N breast cancer cell lines.; format: functional; conditions: Homo sapiens
OVCAR-4 = assay: Cytotoxic activity against OVCAR-4 ovarian cancer cell lines.; format: functional; conditions: Homo sapiens

SMILES | IC50 (HT-29) | IC50 (SK-MEL-28) | IC50 (A549) | IC50 (P388) | GI50 (BT-549) | GI50 (SK-MEL-2) | GI50 (HL-60) | GI50 (RXF 393) | GI50 (MDA-MB-435) | GI50 (UACC-62) | GI50 (U-251) | GI50 (A498) | GI50 (HOP-62) | GI50 (T47D) | GI50 (SNB-75) | GI50 (K562) | GI50 (HOP-92) | GI50 (SNB-19) | GI50 (MDA-N) | GI50 (OVCAR-4)
COc1cc([C@@H]2Cc3[nH]c4ccc(Br)cc4c3[C@@H]3C(=O)N(c4ccccc4)C(=O)[C@H]23)cc(OC)c1OC | > 17.8 µM | > 17.8 µM | > 17.8 µM | > 17.8 µM | – | – | – | – | – | – | – | – | – | – | – | – | – | – | – | –
COc1cc([C@@H]2Cc3[nH]c4ccccc4c3[C@@H]3C(=O)N(c4ccccc4)C(=O)[C@H]23)cc(OC)c1OC | 2.1 µM | 2.1 µM | 2.1 µM | 0.5 µM | 25.1 µM | 27.5 µM | 31.6 µM | 20.4 µM | 21.9 µM | 24 µM | 34.7 µM | 33.1 µM | 16.2 µM | 25.1 µM | 26.9 µM | 31.6 µM | 13.2 µM | 25.7 µM | 30.2 µM | 26.9 µM
COc1cc([C@@H]2Cc3[nH]c4ccc(C)cc4c3[C@@H]3C(=O)N(c4ccccc4)C(=O)[C@H]23)cc(OC)c1OC | 20.1 µM | 20.1 µM | 20.1 µM | 20.1 µM | – | – | – | – | – | – | – | – | – | – | – | – | – | – | – | –
